Assay results as given in EP4775570A1, “CYP11A1 INHIBITOR, PREPARATION METHOD THEREFOR AND USE THEREOF” (Shenzhen Zhongge Biological Technology Co., Ltd., priority 2023, dated 2025).

target: T1, CYP11A1 (Homo sapiens, UniProt P05108); experiment: NCI-H295R cellular pregnenolone biosynthesis inhibition assay (ELISA method); assay type: cell-based; details: NCI-H295R cells, 3 days incubation, pregnenolone in cell supernatant by ELISA; read-out: IC50
T1 construct: host or cells: NCI-H295R
T1 sequence (P05108 40-521): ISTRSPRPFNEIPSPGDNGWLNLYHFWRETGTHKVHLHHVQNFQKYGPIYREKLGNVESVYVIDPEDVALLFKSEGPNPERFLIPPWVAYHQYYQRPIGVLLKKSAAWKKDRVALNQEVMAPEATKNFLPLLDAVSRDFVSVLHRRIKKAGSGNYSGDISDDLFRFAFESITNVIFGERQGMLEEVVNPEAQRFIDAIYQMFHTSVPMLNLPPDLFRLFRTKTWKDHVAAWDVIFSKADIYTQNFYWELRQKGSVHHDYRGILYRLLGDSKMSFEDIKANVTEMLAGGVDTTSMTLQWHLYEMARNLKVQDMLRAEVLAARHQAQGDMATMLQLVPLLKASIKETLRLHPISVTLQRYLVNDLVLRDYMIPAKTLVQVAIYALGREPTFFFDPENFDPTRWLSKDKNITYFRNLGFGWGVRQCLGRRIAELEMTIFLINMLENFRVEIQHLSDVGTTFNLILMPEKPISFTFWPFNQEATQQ
Method: The experiment aims to test the inhibitory effect of the compounds of the present disclosure on cellular pregnenolone biosynthesis, and to assess the inhibitory effect of the compounds on CYP11A1 target based on their IC50 values.
NCI-H295R cells (MINGZHOUBIO, MZ-2138) cultured in NCI-H295R complete medium (MINGZHOUBIO, MCM-0399).
Using culture medium, NCI-H295R cells were seeded into a new 384-well cell culture plate (Greiner, 781091) at a density of 5,000 cells per well, with 45µL of cell suspension per well. The test compounds were prepared by adding 5µL of compound solution at 10× concentration to each well, to a maximum final concentration of 10µM, followed by 3× serial dilution for 10 points, with a final DMSO concentration of 0.1%, centrifuging at 1,000 rpm for 1 minute at room temperature, and then incubating in a 5% CO2 cell incubator at 37°C for 3 days.
Pregnenolone ELISA kit (Abnova, KA1912) was used for detecting the content of pregnenolone in the supernatant of cell culture. Before detection, the reagents were allowed to come back to room temperature for 1 hour. After taking out the 384-well plate, the cellular supernatant was pipetted and subjected to 5× dilution with the Assay Buffer provided in the kit. A working solution of competitive molecule and a washing solution in accordance with the instructions was prepared. 50µL of diluted cellular supernatant were pipetted into the 96-well plate provided in the ELISA kit, added with 100µL of working solution of competitive molecule per well and the plate was incubated at room temperature for 1.5 hours. After discarding the liquid, the plate was washed with 300µL of washing solution per well three times and dried. After adding 150 µL of substrate chromogenic solution per well, the plate was incubated at room temperature for 10-15 minutes. After adding 50 µL of termination solution per well, the plate was incubated at room temperature for 10-15 minutes and read for absorbance at 450nm with Envision HTS Multilabel Reader.
The wells added with 1µM ODM-208 were defined as 100% inhibition (positive control), the wells containing DMSO at a final concentration of 0.1% were defined as 0% inhibition (negative control), and inhibitory ratio = (absorbance of tested sample - average absorbance of negative control)/(average absorbance of positive control - average absorbance of negative control)*100%. The data were subjected to four-parameter fitting using GraphPad Prism to calculate the IC50 values of the compounds.

Compared with `COc1nc(CN2Cc3ccccc3C2)ccc1CCC1CCN(S(C)(=O)=O)CC1` [compound 65], `Cn1c(CN2Cc3ccccc3C2)ccc(CCC2CCN(S(C)(=O)=O)CC2)c1=O` [compound 90] is lower in IC50: 100 to 300 nM for the first, < 100 nM for the second.

`Cn1c(CN2Cc3ccccc3C2)c(F)cc(C(=O)CC2CCN(C(=O)OC(C)(C)C)CC2)c1=O` [compound 125] and `Cn1c(CN2Cc3ccccc3C2)c(F)cc(C(O)CC2CCN(C(=O)OC(C)(C)C)CC2)c1=O` (stereo not drawn) [compound 122] cannot be ordered by IC50: < 100 nM for the first, < 100 nM for the second.

Going from `CS(=O)(=O)N1CCC(CCn2ccc(CN3Cc4ccccc4C3)cc2=O)CC1` [compound 5] to `CS(=O)(=O)N1CCC(CCc2ccc(CN3Cc4ccccc4C3)cc2C#N)CC1` [compound 54], the IC50 falls from > 300 nM to < 100 nM. The second is the more potent here.

First: CCOc1cc(CN2Cc3ccccc3C2)ccc1CCC1CCN(S(C)(=O)=O)CC1 [compound 73]
Second: CCS(=O)(=O)N1CCC(CCc2ccc(CN3Cc4ccccc4C3)cc2OC)CC1 [compound 67]
The IC50 of the first is higher: 100 to 300 nM for the first, < 100 nM for the second. The second is the more potent here.

Compared with `CS(=O)(=O)N1CCC(COc2ccc(CN3Cc4ccccc4C3)cc2OC(F)(F)F)CC1` [compound 20], `CS(=O)(=O)N1CCC(COc2ccc(CN3Cc4ccccc4C3)cc2O)CC1` [compound 18] is lower in IC50: 100 to 300 nM for the first, < 100 nM for the second. The second is the more potent here.

`COc1cc(CN2Cc3ccccc3C2)ccc1CCC1CCN(C(=O)CC#N)CC1` [compound 68] and `COc1cc(CN2Cc3ccccc3C2)ccc1CCC1CCN(C(C)=O)CC1` [compound 70] cannot be ordered by IC50: < 100 nM for the first, < 100 nM for the second.

`C=Cc1cc(CN2Cc3ccccc3C2)ccc1OCC1CCN(S(C)(=O)=O)CC1` [compound 26] and `CS(=O)(=O)N1CCC(COc2ccc(CN3Cc4ccccc4C3)cc2Cl)CC1` [compound 16] cannot be ordered by IC50: < 100 nM for the first, < 100 nM for the second.

`Cn1c(CN2Cc3ccccc3C2)c(F)cc(CCN2CCN(C(=O)OC(C)(C)C)CC2)c1=O` [compound 129] and `[2H]C([2H])(c1c(F)cc(CCC2CCN(C(=O)OC(C)(C)C)CC2)c(=O)n1C)N1Cc2ccccc2C1` [compound 121] cannot be ordered by IC50: < 100 nM for the first, < 100 nM for the second.

Compared with `CS(=O)(=O)N1CCC(CCc2cc(F)c(CN3Cc4ccccc4C3)cc2C#N)CC1` [compound 59], `CS(=O)(=O)N1CCC(CCc2cc(F)c(CN3Cc4ccccc4C3)[nH]c2=O)CC1` [compound 94] is higher in IC50: < 100 nM for the first, 100 to 300 nM for the second. The first is the more potent here.

`CS(=O)(=O)N1CCC(COc2c(F)cc(CN3Cc4ccccc4C3)cc2Br)CC1` [compound 34] and `CSc1cc(CN2Cc3ccccc3C2)c(F)cc1OCC1CCN(S(C)(=O)=O)CC1` [compound 33] cannot be ordered by IC50: < 100 nM for the first, < 100 nM for the second.

`COc1cc(CN2Cc3ccccc3C2)ccc1/C=C/C1CCN(S(C)(=O)=O)CC1` [compound 44] and `CS(=O)(=O)N1CCC(C=Cc2ccc(CN3Cc4ccccc4C3)cc2C#N)CC1` [compound 60] cannot be ordered by IC50: < 100 nM for the first, < 100 nM for the second.

`CC(c1c(F)cc(CCC2CCN(S(C)(=O)=O)CC2)c(=O)n1C)N1Cc2ccccc2C1` (stereo not drawn) [compound 102] and `[2H]C([2H])([2H])n1c(CN2Cc3ccccc3C2)c(F)cc(CCC2CCN(S(C)(=O)=O)CC2)c1=O` [compound 106] cannot be ordered by IC50: < 100 nM for the first, < 100 nM for the second.

`CS(=O)(=O)N1CCC(COc2ccc(CN3Cc4ccccc4C3)cn2)CC1` [compound 7] and `CS(=O)(=O)N1CCC(COc2cnc(CN3Cc4ccccc4C3)cn2)CC1` [compound 9] cannot be ordered by IC50: > 300 nM for the first, > 300 nM for the second.

`COc1cc(CN2Cc3ccccc3C2)ccc1CCC1CCN(S(=O)(=O)c2ccc(C)cc2)CC1` [compound 75] and `COc1cc(CN2Cc3ccccc3C2)ccc1CCC1CCN(S(=O)(=O)c2cccs2)CC1` [compound 78] cannot be ordered by IC50: < 100 nM for the first, < 100 nM for the second.

Compared with `CCn1c(CN2Cc3ccccc3C2)c(F)cc(CCC2CCN(S(C)(=O)=O)CC2)c1=O` [compound 107], `Cn1c(CN2Cc3ccc(F)cc3C2)c(F)cc(CCC2CCN(S(C)(=O)=O)CC2)c1=O` [compound 101] is higher in IC50: < 100 nM for the first, > 300 nM for the second.

First: CS(=O)(=O)N1CCC(COc2ccc(CN3Cc4ccccc4C3)cc2-c2ccco2)CC1 [compound 36]
Second: CS(=O)(=O)N1CCC(COc2ccc(CN3Cc4ccccc4C3)cc2-c2ncco2)CC1 [compound 37]
The IC50 of the first is higher: > 300 nM for the first, 100 to 300 nM for the second.

`Cn1c(CN2Cc3ccccc3C2)c(F)cc(C=CC2CCN(S(=O)(=O)C3CC3)CC2)c1=O` [compound 111] and `Cn1c(CN2Cc3ccccc3C2)c(F)cc(C(F)=CC2CCN(S(C)(=O)=O)CC2)c1=O` [compound 123] cannot be ordered by IC50: < 100 nM for the first, < 100 nM for the second.

First: COc1cc(CN2Cc3ccccc3C2)ccc1COC1CCN(S(C)(=O)=O)CC1 [compound 42]
Second: COc1cc(CN2Cc3ccccc3C2)ccc1CCN1CCN(S(C)(=O)=O)CC1 [compound 48]
The IC50 of the first is higher: > 300 nM for the first, 100 to 300 nM for the second.

Compared with `Cn1c(CN2Cc3ccccc3C2)c(F)cc(-c2ccc3c(n2)CCN(S(C)(=O)=O)C3)c1=O` [compound 127], `CC1CC(CCc2cc(F)c(CN3Cc4ccccc4C3)n(C)c2=O)CCN1S(C)(=O)=O` (stereo not drawn) [compound 109] is lower in IC50: > 300 nM for the first, < 100 nM for the second. The second is the more potent here.

`Fc1cc(OCC2CCNCC2)c(Br)cc1CN1Cc2ccccc2C1` [compound 56] and `CC(C)c1cc(CN2Cc3ccccc3C2)c(F)cc1OCC1CCN(S(C)(=O)=O)CC1` [compound 31] cannot be ordered by IC50: > 300 nM for the first, > 300 nM for the second.

First: CS(=O)(=O)N1CCC(CCc2sc(CN3Cc4ccccc4C3)cc2C#N)CC1 [compound 96]
Second: CS(=O)(=O)N1CCC(CCc2ncc(CN3Cc4ccccc4C3)s2)CC1 [compound 86]
The IC50 of the first is higher: > 300 nM for the first, 100 to 300 nM for the second.

Going from `COc1cc(CN2Cc3ccccc3C2)ccc1CCC1CCS(=O)(=O)CC1` [compound 88] to `CNC(=O)N1CCC(CCc2ccc(CN3Cc4ccccc4C3)cc2OC)CC1` [compound 79], the IC50 falls from > 300 nM to < 100 nM.

Compared with `COc1cc(CN2Cc3ccccc3C2)ccc1C#CC1(O)CCN(S(C)(=O)=O)CC1` [compound 93], `Cc1cc(CN2Cc3ccccc3C2)ccc1OCC1CCN(S(C)(=O)=O)CC1` [compound 11] is lower in IC50: 100 to 300 nM for the first, < 100 nM for the second.

First: COc1cc(CN2Cc3ccccc3C2)ccc1CCC1CCN(C(=O)C(C)(C)C)CC1 [compound 81]
Second: COc1cc(CN2Cc3ccccc3C2)ccc1CCC1CCN(S(=O)(=O)C(F)(F)F)CC1 [compound 77]
The IC50 of the first is lower: < 100 nM for the first, 100 to 300 nM for the second. The first is the more potent here.

First: CS(=O)(=O)N1CCC(CCc2cnc(CN3Cc4ccccc4C3)s2)CC1 [compound 87]
Second: CS(=O)(=O)N1CCC(COc2ccc(CN3Cc4ccccc4C3)cc2)CC1 [compound 10]
The IC50 of the first is higher: > 300 nM for the first, < 100 nM for the second.

Compared with `CS(=O)(=O)N1CCC(C=Cc2cc(F)c(CN3Cc4ccccc4C3)cc2C#N)CC1` [compound 61], `C=C(C)c1cc(CN2Cc3ccccc3C2)c(F)cc1OCC1CCN(S(C)(=O)=O)CC1` [compound 28] is lower in IC50: 100 to 300 nM for the first, < 100 nM for the second. The second is the more potent here.

Compared with `CCC(C)Oc1cc(CN2Cc3ccccc3C2)c(F)cc1OCC1CCN(S(C)(=O)=O)CC1` (stereo not drawn) [compound 12], `CS(=O)(=O)N1CCC(CSc2ccc(CN3Cc4ccccc4C3)cc2F)CC1` [compound 43] is higher in IC50: < 100 nM for the first, 100 to 300 nM for the second.

`COc1cc(CN2Cc3ccccc3C2)ccc1C=CC1CCN(C(=O)OC(C)(C)C)CC1` [compound 50] and `Cn1c(CN2Cc3ccccc3C2)c(F)cc(C=CC2CCN(C(=O)OC(C)(C)C)CC2)c1=O` [compound 105] cannot be ordered by IC50: < 100 nM for the first, < 100 nM for the second.

First: COc1cc(CN2Cc3cccnc3C2)ccc1CCC1CCN(S(C)(=O)=O)CC1 [compound 62]
Second: COc1cc(CN2Cc3ccccc3C2)ccc1C#CC1=CCS(=O)(=O)CC1 [compound 97]
The IC50 of the first is lower: 100 to 300 nM for the first, > 300 nM for the second. The first is the more potent here.

Compared with `CC1CC(C#Cc2cc(F)c(CN3Cc4ccccc4C3)n(C)c2=O)CCN1C(=O)OC(C)(C)C` (stereo not drawn) [compound 115], `CC(=O)N1CCN(c2cccc(Oc3ccc(CN4Cc5ccccc5C4)cc3F)c2)CC1` [compound 47] is higher in IC50: < 100 nM for the first, > 300 nM for the second.
